Each block holds one compound with its values, some of them ahead of it.
Legend:
[1] = tested on: phenylephrine-contracted endothelium-intact rat aortic rings; test: Endothelium-dependent relaxation (EDR) bioassay, endothelium-intact aortic rings; assay type: cell-based; conditions: for threshold concentration (for 10% relaxation): intact aortic rings; for EDR activity (relaxation of endothelium-intact rings): phenylephrine-contracted endothelium-intact rings
Description: Aortic ring preparation and bioassay. The procedure for preparation of rat aortic rings and general aspects of determining mechanical activity has been previously described. Briefly, male Sprague-Dawley rats (200–225 g) were euthanized with an overdose of sodium pentobarbital (100 mg/kg, i.p.), bled, and the thoracic aorta excised, cleaned, and rings (3–4 mm in length) were cut, taking care not to disturb the endothelium. In some instances the endothelium was deliberately removed by gently rubbing the lumen with a curved forceps. The rings were suspended in tissue baths containing a physiologic salt solution (PSS) with the following composition (in millimolar): 118 NaCl; 4.7 KCl; 25 NaHCO3; 1.2 MgSO4; 1.2 NaH2PO4; 0.026 EDTA; 1.5 CaCl2; 11 glucose. The solution was bubbled continuously with O2/CO2 (95%/5%), and maintained at 37° C. Activity was recorded on a Grass polygraph. After equilibration for at least 1 hr under 1.5 g of tension, tissues were contracted submaximally (approximately 80% of Emax) with phenylephrine (˜1 μM), and then 3 μM acetylcholine, a known EDR-active compound, was added to the bath to test for intactness of the endothelium. Rings were washed with PSS three times over the next 45 min. prior to the next sequence. EDR activity of HPLC peaks was determined by first contracting aortic rings with phenylephrine, as above, then generating concentration-response curves for relaxation by adding each peak sample to the bath, beginning with a sub-threshold concentration and adding increasing amounts until maximum relaxation is achieved. To test for endothelium-dependence, denuded aortic rings were used. Successful endothelium removal was established by a lack of relaxation response to 3 μM acetylcholine. […] Statistical methods. Data are presented as means±SEM. EC50s were determined from concentration-response curves, utilizing nonlinear regression analysis software (GraphPad Prizm, San Diego, Calif.).

[2] = tested on: endothelium-denuded rat aortic rings; test: Relaxation bioassay, endothelium-denuded aortic rings; assay type: cell-based; conditions: de-endothelialized rings
Description: Aortic ring preparation and bioassay. The procedure for preparation of rat aortic rings and general aspects of determining mechanical activity has been previously described. Briefly, male Sprague-Dawley rats (200–225 g) were euthanized with an overdose of sodium pentobarbital (100 mg/kg, i.p.), bled, and the thoracic aorta excised, cleaned, and rings (3–4 mm in length) were cut, taking care not to disturb the endothelium. In some instances the endothelium was deliberately removed by gently rubbing the lumen with a curved forceps. The rings were suspended in tissue baths containing a physiologic salt solution (PSS) with the following composition (in millimolar): 118 NaCl; 4.7 KCl; 25 NaHCO3; 1.2 MgSO4; 1.2 NaH2PO4; 0.026 EDTA; 1.5 CaCl2; 11 glucose. The solution was bubbled continuously with O2/CO2 (95%/5%), and maintained at 37° C. Activity was recorded on a Grass polygraph. […] EDR activity of HPLC peaks was determined by first contracting aortic rings with phenylephrine, as above, then generating concentration-response curves for relaxation by adding each peak sample to the bath, beginning with a sub-threshold concentration and adding increasing amounts until maximum relaxation is achieved. […]

blood vessels in vitro = conditions: background statements; cited from earlier work

EC50 ([1]; phenylephrine-contracted intact rings): 760 nM | EC50 for relaxation of intact aortic rings ([1]; phenylephrine-contracted intact rings, mean±SEM, n=4 rats (3–6 concentration-response curves/rat aorta)): 0.67 ± 0.04 µg/mL
SMILES: O=C(O[C@@H]1[C@@H](c2c(O)cc(O)c3c2O[C@H](c2ccc(O)c(O)c2)[C@H](OC(=O)c2cc(O)c(O)c(O)c2)C3)c2c(O)cc(O)cc2O[C@@H]1c1ccc(O)c(O)c1)c1cc(O)c(O)c(O)c1 (single isomer, unassigned; peak f2) [peak F2, epicatechin-galloyl-epicatechin-gallate]
threshold concentration (for 10% relaxation) [1]: approximately 0.35 μg/ml | threshold concentration (for 10% relaxation) ([1]; molar value printed in brackets): ~0.4 µM | EDR activity (relaxation of endothelium-intact rings) [1]: relaxed | EDR activity (relaxation of endothelium-intact rings) ([1]; listed as dimer digallate): substantial EDR activity | relaxing activity on endothelium-denuded rings [2]: no effect

SMILES: Oc1cc(O)c2c(c1)OC(c1ccc(O)c(O)c1)C(O)C2O (stereo not drawn) [leucocyanidol]
EDR activity (previous studies) (blood vessels in vitro): some activity at lower concentrations

SMILES: N=C(N)NCCC[C@H](N)C(=O)O [L-arginine, reference compound]
effect on the B2-di-gallate-induced relaxation of intact rings ([1]; added to the bath after peak F2, L-arginine added after NNA): caused the tissue to relax once again
